Activity and IC50 data for eight molecules are collected here from article PMC6667231 (International journal of nutrition, 2019).

One experiment deals with T1, CDK4/Cyclin D1 (Homo sapiens, UniProt P11802). The experiment is described as follows: cell-free […]-ATP kinase assay, P81 phosphocellulose plate. The experiment is classed as biochemical. As to conditions: read-out: 40 μM.
T1 sequence (P11802 2-303): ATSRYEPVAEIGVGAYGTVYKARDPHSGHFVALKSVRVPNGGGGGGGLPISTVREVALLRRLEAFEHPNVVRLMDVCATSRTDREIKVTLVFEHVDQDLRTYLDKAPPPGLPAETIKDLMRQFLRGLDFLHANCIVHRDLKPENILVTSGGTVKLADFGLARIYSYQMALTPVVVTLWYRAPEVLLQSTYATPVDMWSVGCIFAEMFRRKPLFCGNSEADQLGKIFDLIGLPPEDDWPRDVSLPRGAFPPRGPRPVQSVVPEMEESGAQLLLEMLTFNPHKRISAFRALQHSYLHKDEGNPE
T1 sequence (P24385 whole entry partner): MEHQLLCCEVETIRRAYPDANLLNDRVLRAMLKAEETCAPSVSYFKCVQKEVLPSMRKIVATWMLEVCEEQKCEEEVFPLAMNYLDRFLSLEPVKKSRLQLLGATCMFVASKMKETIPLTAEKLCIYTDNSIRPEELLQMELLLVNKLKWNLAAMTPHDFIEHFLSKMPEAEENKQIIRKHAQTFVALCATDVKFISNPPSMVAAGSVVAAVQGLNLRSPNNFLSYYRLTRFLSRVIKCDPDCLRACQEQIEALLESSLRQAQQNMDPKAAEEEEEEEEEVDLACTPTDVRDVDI
As to `CC(C)=CCc1c(O)c(CC=C(C)C)c2oc3c(O)cccc3c(=O)c2c1O` [8-desoxygartanin], the activity at 40 µM was 81.4 ± 6.38%.

As to `CC(C)=CCc1c(O)cc2oc3cc(O)c(O)c(CCC(C)(C)O)c3c(=O)c2c1O` [garcinone C], the activity at 40 µM came out at 65.7 ± 7.94%. With `CC(C)=CCc1c(O)c(CC=C(C)C)c2oc3c(O)ccc(O)c3c(=O)c2c1O` [gartanin], the activity at 40 µM amounted to 80.2 ± 10.2%. On to `COc1cc2oc3cc(O)c(OC)c(CC=C(C)C)c3c(=O)c2c(O)c1CC=C(C)C` [β-mangostin], for which the activity at 40 µM is 55 ± 2.88%.

Another experiment addresses T1, CDK4/Cyclin D1. Described as above. The experiment is classed as biochemical.
Settings: not given
Turning to `COc1c(O)cc2oc3cc4c(c(O)c3c(=O)c2c1CC=C(C)C)CCC(C)(C)O4` [3-isomangostin], the IC50 is 15.6 µM. Take `COc1c(O)cc2oc3cc(O)c(CC=C(C)C)c(O)c3c(=O)c2c1CCC(C)(C)O` [garcinone D]: the IC50 was determined as 12.8 µM. As to `COc1c(O)cc2oc3cc(O)c(CC=C(C)C)c(O)c3c(=O)c2c1CC=C(C)C` [α-mangostin], the IC50 was determined as 8.5 µM. Molecule `CC(C)=CCc1c(O)cc2oc3cc(O)c(O)c(CC=C(C)C)c3c(=O)c2c1O` [γ-mangostin] gave an IC50 of 6.2 µM.

By IC50 is commonly meant the concentration that gives 50% inhibition. A high value points to weaker potency in that assay.
